Patent publication US20250351832A1, “PHYTOCHEMICALS AS BIOPESTICIDES AND BIOSTIMULANTS” (KAY BEE BIO ORGANICS PVT. LTD., priority 2024, published 2025)
Entries after “also recorded” stand apart in the source; their conditions may differ. Read-outs that look alike come from different tables or passages of the source.

Key:
Mealy Bug [1] = conditions: Mealy Bug on cotton leaves, dose 1 ml/gm/lit., 48 Hrs.; for Total No. of dead insect at 48 Hrs.: 10 insects/treatment, 4 replications; for % Corrected Mortality at 48 Hrs.: corrected for water control
Aphid [2] = experiment: whole plant or invertebrate; conditions: 48 h
Alternaria alternata [3] = experiment: In vitro poisoned food technique against fungus (Ex. 20); type: cell-based; conditions: poisoned food technique, PDA medium, dose 1 ml/gm/lit., after seven days; for inhibition of growth at 1 mL or g/L: vs untreated control, read-out: % Inhibition of growth
Spodoptera litura [4] = conditions: Spodoptera litura 3rd instar on cabbage plants, dose 1 ml/gm/lit. spray; for % Mortality at 72 Hrs.: 72 hrs after application; for % Corrected Mortality at 72 Hrs.: corrected for water control
Helicoverpa armigera [5] = conditions: Helicoverpa armigera on okra fruits, dose 1 ml/gm/lit., 72 Hrs.; for Total No. of dead insect at 72 Hrs.: 10 insects/treatment, 4 replications; for % Corrected Mortality at 72 Hrs.: corrected for water control
Aphid [6] = conditions: Aphids on cotton plants, green house; dose 1 ml/gm/lit.; 10 insects/plant, 10 plants/treatment; 48 hrs
Helicoverpa armigera [7] = conditions: Helicoverpa armigera 3rd instar on chickpea plants, dose 1 ml/gm/lit. spray; for % Mortality at 72 Hrs.: 72 hrs after application; for % Corrected Mortality at 72 Hrs.: corrected for water control
Thrips [8] = experiment: whole plant or invertebrate; conditions: in Gossypium hirsutum, 48 h
Aphid [9] = conditions: Dose 1 ml/gm/lit.; for Total No. of dead insect at 48 Hrs.: 10 insects/treatment, 4 replications, cotton leaves
Mite [10] = conditions: mite on okra plants, green house, dose 1 ml/gm/lit. spray; for % Mortality at 48 Hrs. / Total No. of dead insect at 48 Hrs.: 48 hrs after application; for % Corrected Mortality at 48 Hrs.: corrected for water control
Mealy Bug [11] = conditions: mealy bug on cotton plants, green house, dose 1 ml/gm/lit. spray; for % Mortality at 48 Hrs. / Total No. of dead insect at 48 Hrs.: 48 hrs after application; for % Corrected Mortality at 48 Hrs.: corrected for water control
Spodoptera litura [12] = experiment: whole plant or invertebrate; conditions: 72 h
Alternaria alternata [13] = experiment: Alternaria leaf spot/blight on inoculated tomato plants (Ex. 28); type: in vivo; conditions: tomato plants, Alternaria alternata; after 7 days; dose 1 ml/gm/lit
Mite [14] = conditions: Dose 1 ml/gm/lit.; for Total No. of dead insect at 48 Hrs.: 10 insects/treatment, 4 replications, okra leaves
[15] = Table 13, effect on plants, descriptive; cited from earlier work
chili seedlings = experiment: Response of chili plants, greenhouse growth (Ex. 31); type: in vivo; conditions: chili seedlings, dose 1 ml/gm/lit; for CCI 5th Day / Plant Height (cm) 5th Day: 5th day after application; for CCI 10th Day / Plant Height (cm) 10th Day: 10th day after application; for CCI % Increase over pre on 10th Day / Plant Height % Increase over pre on 10th Day / Root Lenght (cm) 10th Day / Stem Girth % Increase over pre on 10th Day / Root Lenght % Increase over control: 10th day; for Root Lenght % Increase over control: vs water control
Spodoptera litura [16] = conditions: Spodoptera litura on castor leaves; dose 1 ml/gm/lit.; 10 insects/treatment; 72 hrs after application
Thrips [17] = conditions: thrips on cotton plants, greenhouse, dose 1 ml/gm/lit. spray; for % Corrected Mortality at 48 Hrs.: corrected for water control
tomato seedlings = experiment: Response of tomato plants, greenhouse growth (Ex. 30); type: in vivo; conditions: tomato seedlings, dose 1 ml/gm/lit; for Plant Height 5th Day / Stem Girth 5th Day / CCI 5th Day: 5th day after application; for Plant Height 10th Day / Stem Girth 10th Day / CCI 10th Day: 10th day after application; for Plant Height % Increase over pre on 10th Day / Stem Girth % Increase over pre on 10th Day / CCI % Increase over pre on 10th Day / Root Length (cm) 10th Day / Root Length % Increase over control: 10th day; for Root Length % Increase over control: vs water control
Thrips [18] = conditions: Thrips on cotton leaves; dose 1 ml/gm/lit.; 10 insects/treatment; 48 hrs after application
[19] = read-out: % Corrected Mortality at 48 Hrs.
[20] = read-out: % Mortality at 48 Hrs.
[21] = read-out: % Corrected Mortality at 72 Hrs.
[22] = read-out: % Mortality at 72 Hrs.

CC12CCC(CC1)C(C)(C)O2 [1,8 cineole]
Total No. of dead insect at 48 Hrs. (Mealy Bug [1]): 5.50
% Mortality at 48 Hrs. (Mealy Bug [1]): 55.00%
% Corrected Mortality at 48 Hrs. (Mealy Bug [1]): 52.63%
mortality at 1 mL or g/L (Aphid [2]; [19]): 55.9%
mortality at 1 mL or g/L (Aphid [2]; [20]): 62.5%
Mean colony Diameter (mm) (Alternaria alternata [3]): 72.00 mm
inhibition of growth at 1 mL or g/L (Alternaria alternata [3]): 18.2%
% Mortality at 72 Hrs. (Spodoptera litura [4]): 70.00%
% Corrected Mortality at 72 Hrs. (Spodoptera litura [4]): 68.42%
Total No. of dead insect at 72 Hrs. (Helicoverpa armigera [5]): 5.50
% Mortality at 72 Hrs. (Helicoverpa armigera [5]): 55.00%
% Corrected Mortality at 72 Hrs. (Helicoverpa armigera [5]): 55.00%
Total No. of dead insect at 48 Hrs. (Aphid [6]): 62.50
% Mortality at 72 Hrs. (Helicoverpa armigera [7]): 52.50%
% Corrected Mortality at 72 Hrs. (Helicoverpa armigera [7]): 52.50%
mortality at 1 mL or g/L (Thrips [8]; [19]): 65.7%
mortality at 1 mL or g/L (Thrips [8]; [20]): 70%
Total No. of dead insect at 48 Hrs. (Aphid [9]): 6.50
% Corrected Mortality at 48 Hrs. (Aphid [9]): 60.00%
% Mortality at 48 Hrs. (Aphid [9]): 65.00%
% Mortality at 48 Hrs. (Mite [10]): 22.50%
Total No. of dead insect at 48 Hrs. (Mite [10]): 22.50
% Corrected Mortality at 48 Hrs. (Mite [10]): 18.42%
% Mortality at 48 Hrs. (Mealy Bug [11]): 45.00%
Total No. of dead insect at 48 Hrs. (Mealy Bug [11]): 45.00
% Corrected Mortality at 48 Hrs. (Mealy Bug [11]): 38.89%
mortality at 1 mL or g/L (Spodoptera litura [12]; [21]): 57.9%
mortality at 1 mL or g/L (Spodoptera litura [12]; [22]): 60%
% Disease reduction over Control (Alternaria alternata [13]): 46.28%
Total No. of dead insect at 48 Hrs. (Mite [14]): 2.50
% Corrected Mortality at 48 Hrs. (Mite [14]): 18.92%
% Mortality at 48 Hrs. (Mite [14]): 25.00%
Phytotonic Effect [15]: Boost chlorophyll; also recorded: Trigger the nutrition
CCI 5th Day (chili seedlings): 9.69
Plant Height (cm) 5th Day (chili seedlings): 6.99 cm
CCI % Increase over pre on 10th Day (chili seedlings): 42.63%
Plant Height % Increase over pre on 10th Day (chili seedlings): 49.60%
Root Lenght (cm) 10th Day (chili seedlings): 3.26 cm
Stem Girth % Increase over pre on 10th Day (chili seedlings): 44.88%
CCI 10th Day (chili seedlings): 12.58
Plant Height (cm) 10th Day (chili seedlings): 7.54 cm
Root Lenght % Increase over control (chili seedlings): 19.07%
Total No. of dead insect at 72 Hrs. (Spodoptera litura [16]): 6.00
% Mortality at 48 Hrs. (Thrips [17]; 48 hrs after application): 67.50%
Total No. of dead insect at 48 Hrs. (Thrips [17]; 48 hrs after application): 67.50
% Corrected Mortality at 48 Hrs. (Thrips [17]): 63.89%
Plant Height 5th Day (tomato seedlings): 6.84 cm
Stem Girth 5th Day (tomato seedlings): 1.74 mm
Plant Height 10th Day (tomato seedlings): 7.53 cm
Stem Girth 10th Day (tomato seedlings): 2.16 mm
Plant Height % Increase over pre on 10th Day (tomato seedlings): 29.60%
Stem Girth % Increase over pre on 10th Day (tomato seedlings): 58.82%
CCI 5th Day (tomato seedlings): 13.55
CCI % Increase over pre on 10th Day (tomato seedlings): 26.08%
Root Length (cm) 10th Day (tomato seedlings): 4.07 cm
CCI 10th Day (tomato seedlings): 14.55
Root Length % Increase over control (tomato seedlings): 22.24%
Total No. of dead insect at 48 Hrs. (Thrips [18]): 7.00

CC1=CCC2CC1C2(C)C (stereo not drawn) [Alpha-pinene]
Total No. of dead insect at 48 Hrs. (Mealy Bug [1]): 5.25
% Mortality at 48 Hrs. (Mealy Bug [1]): 52.50%
% Corrected Mortality at 48 Hrs. (Mealy Bug [1]): 50.00%
mortality at 1 mL or g/L (Aphid [2]; [19]): 52.9%
mortality at 1 mL or g/L (Aphid [2]; [20]): 60%
Mean colony Diameter (mm) (Alternaria alternata [3]): 71.50 mm
inhibition of growth at 1 mL or g/L (Alternaria alternata [3]): 18.8%
% Mortality at 72 Hrs. (Spodoptera litura [4]): 55.00%
% Corrected Mortality at 72 Hrs. (Spodoptera litura [4]): 52.63%
Total No. of dead insect at 72 Hrs. (Helicoverpa armigera [5]): 7.00
% Mortality at 72 Hrs. (Helicoverpa armigera [5]): 70.00%
% Corrected Mortality at 72 Hrs. (Helicoverpa armigera [5]): 70.00%
Total No. of dead insect at 48 Hrs. (Aphid [6]): 60.00
% Mortality at 72 Hrs. (Helicoverpa armigera [7]): 67.50%
% Corrected Mortality at 72 Hrs. (Helicoverpa armigera [7]): 67.50%
mortality at 1 mL or g/L (Thrips [8]; [19]): 34.3%
mortality at 1 mL or g/L (Thrips [8]; [20]): 42.5%
Total No. of dead insect at 48 Hrs. (Aphid [9]): 5.75
% Corrected Mortality at 48 Hrs. (Aphid [9]): 51.43%
% Mortality at 48 Hrs. (Aphid [9]): 57.50%
% Mortality at 48 Hrs. (Mite [10]): 32.50%
Total No. of dead insect at 48 Hrs. (Mite [10]): 32.50
% Corrected Mortality at 48 Hrs. (Mite [10]): 28.95%
% Mortality at 48 Hrs. (Mealy Bug [11]): 60.00%
Total No. of dead insect at 48 Hrs. (Mealy Bug [11]): 60.00
% Corrected Mortality at 48 Hrs. (Mealy Bug [11]): 55.56%
mortality at 1 mL or g/L (Spodoptera litura [12]; [21]): 47.4%
mortality at 1 mL or g/L (Spodoptera litura [12]; [22]): 50%
% Disease reduction over Control (Alternaria alternata [13]): 42.15%
Total No. of dead insect at 48 Hrs. (Mite [14]): 4.00
% Corrected Mortality at 48 Hrs. (Mite [14]): 35.14%
% Mortality at 48 Hrs. (Mite [14]): 40.00%
Phytotonic Effect [15]: Trigger plant; also recorded: Boost chlorophyll
CCI 5th Day (chili seedlings): 11.40
Plant Height (cm) 5th Day (chili seedlings): 6.35 cm
CCI % Increase over pre on 10th Day (chili seedlings): 36.59%
Plant Height % Increase over pre on 10th Day (chili seedlings): 51.74%
Root Lenght (cm) 10th Day (chili seedlings): 3.23 cm
Stem Girth % Increase over pre on 10th Day (chili seedlings): 41.80%
CCI 10th Day (chili seedlings): 12.58
Plant Height (cm) 10th Day (chili seedlings): 6.54 cm
Root Lenght % Increase over control (chili seedlings): 17.88%
Total No. of dead insect at 72 Hrs. (Spodoptera litura [16]): 5.00
Total No. of dead insect at 48 Hrs. (Thrips [17]; 48 hrs after application): 42.50
% Corrected Mortality at 48 Hrs. (Thrips [17]): 36.11%
Plant Height 5th Day (tomato seedlings): 7.24 cm
Stem Girth 5th Day (tomato seedlings): 2.01 mm
Plant Height 10th Day (tomato seedlings): 7.74 cm
Stem Girth 10th Day (tomato seedlings): 2.22 mm
Plant Height % Increase over pre on 10th Day (tomato seedlings): 26.47%
Stem Girth % Increase over pre on 10th Day (tomato seedlings): 55.24%
CCI 5th Day (tomato seedlings): 13.65
CCI % Increase over pre on 10th Day (tomato seedlings): 25.17%
Root Length (cm) 10th Day (tomato seedlings): 4.30 cm
CCI 10th Day (tomato seedlings): 14.32
Root Length % Increase over control (tomato seedlings): 29.14%
Total No. of dead insect at 48 Hrs. (Thrips [18]): 4.25
